From patent US10828315B2 (Madrigal Pharmaceuticals, Inc., priority 2013, dated 2020)
Several values for one entry are separate records, joined by “and”; a condition that tells them apart may be missing. Equal values may be shown once.

Tests used:
[1] = Mouse plasma stability protocol, up to 1 h (Examples 16-18); conditions: for % Remaining (1 h, 37° C.): mouse plasma; for % Remaining (1 h): % Remaining of parent after 1 h incubation in mouse plasma at 37° C. (10 μM)
[2] = system: HER2; test: HER2 degradation assay with BT-474 cell line (Example 12, FACS); assay type: cell-based, human

| Compound | % Remaining (1 h, 37° C.) [1] [%] | IC50 [2] | % Remaining (1 h) [1] [%] |
| --- | --- | --- | --- |
| CCc1c2c(nc3ccc(OC(=O)N4CCN(Cc5ccc(-n6c(O)nnc6-c6cc(C(C)C)c(O)cc6O)cc5)CC4C)cc13)-c1cc3c(c(=O)n1C2)COC(=O)C3(O)CC (centres unmarked) [SDC-TRAP-0220, 4,11-diethyl-4-hydroxy-3,14-dioxo-3,4,12,14-tetrahydro-1H-pyrano[3′,4′:6,7]indolizino[1,2-b]quinolin-9-yl 4-(4-(3-(2,4-dihydroxy-5-isopropylphenyl)-5-hydroxy-4H-1,2,4-triazol-4-yl)benzyl)-2-methylpiperazine-1-carboxylate] | 78.3 | 474 nM and 445 nM |  |
| CCc1c2c(nc3ccc(O)cc13)-c1cc3c(c(=O)n1C2)COC(=O)[C@@]3(CC)OC(=O)N1CCC(CCc2ccc(-n3c(O)nnc3-c3cc(C(C)C)c(O)cc3O)cc2)CC1 [SDC-TRAP-0104, (S)-4,11-diethyl-9-hydroxy-3,14-dioxo-3,4,12,14-tetrahydro-1H-pyrano[3′,4′:6,7]indolizino[1,2-b]quinolin-4-yl 4-(4-(3-(2,4-dihydroxy-5-isopropylphenyl)-5-hydroxy-4H-1,2,4-triazol-4-yl)phenethyl)piperidine-1-carboxylate] | 95.5 | 350 nM | 95.5 |
| CCc1c2c(nc3ccc(OC(=O)N4CCCCC4C(=O)N4CCC(CCn5ccc6cc(-n7c(O)nnc7-c7cc(C(C)C)c(O)cc7O)ccc65)CC4)cc13)-c1cc3c(c(=O)n1C2)COC(=O)[C@]3(O)CC (stereo partly drawn) [SDC-TRAP-0215, (S)-4,11-diethyl-4-hydroxy-3,14-dioxo-3,4,12,14-tetrahydro-1H-pyrano[3′,4′:6,7]indolizino[1,2-b]quinolin-9-yl 2-(4-(2-(5-(3-(2,4-dihydroxy-5-isopropylphenyl)-5-hydroxy-4H-1,2,4-triazol-4-yl)-1H-indol-1-yl)ethyl)piperidine-1-carbonyl)piperidine-1-carboxylate] | 77.2 | 2750 nM |  |
| CCNC(=O)c1nnc(-c2cc(C(C)C)c(O)cc2O)n1-c1ccc(OC2CCN(C(=O)Oc3c(C)cc(COC(=O)Nc4cccc5c4CN(C4CCC(=O)NC4=O)C5=O)cc3C)CC2)cc1 (centres unmarked) [SDC-TRAP-0187, 4-((((2-(2,6-dioxopiperidin-3-yl)-1-oxoisoindolin-4-yl)carbamoyl)oxy)methyl)-2,6-dimethylphenyl 4-(4-(3-(2,4-dihydroxy-5-isopropylphenyl)-5-(ethylcarbamoyl)-4H-1,2,4-triazol-4-yl)phenoxy)piperidine-1-carboxylate] |  | 72 nM | 102 |
| CCNC(=O)c1nnc(-c2cc(C(C)C)c(O)cc2O)n1-c1ccc(OC2CCN(C(=O)C3CCN(C(=O)Oc4ccc5nc6c(c(CC)c5c4)Cn4c-6cc5c(c4=O)COC(=O)[C@]5(O)CC)C(C)C3)CC2)cc1 (stereo partly drawn) [SDC-TRAP-0213, (S)-4,11-diethyl-4-hydroxy-3,14-dioxo-3,4,12,14-tetrahydro-1H-pyrano[3′,4′:6,7]indolizino[1,2-b]quinolin-9-yl 4-(4-(4-(3-(2,4-dihydroxy-5-isopropylphenyl)-5-(ethylcarbamoyl)-4H-1,2,4-triazol-4-yl)phenoxy)piperidine-1-carbonyl)-2-methylpiperidine-1-carboxylate] | 74.7 | 248 nM | 74.7 |
| CCNC(=O)c1nnc(-c2cc(C(C)C)c(O)cc2O)n1-c1ccc(OC2CCN(C(=O)[C@@H]3CCCN3C(=O)Oc3ccc4nc5c(c(CC)c4c3)Cn3c-5cc4c(c3=O)COC(=O)[C@]4(O)CC)CC2)cc1 [SDC-TRAP-0209] | 67.1 | 1130 nM | 67.1 |
| CCNC(=O)c1nnc(-c2cc(C(C)C)c(O)cc2O)n1-c1ccc(C(=O)N2CCN(C(=O)COC(=O)OC3(CC)C(=O)OCc4c3cc3n(c4=O)Cc4c-3nc3ccc(O)cc3c4CC)CC2)cc1 (centres unmarked) [SDC-TRAP-0202, 4,11-diethyl-9-hydroxy-3,14-dioxo-3,4,12,14-tetrahydro-1H-pyrano[3′,4′:6,7]indolizino[1,2-b]quinolin-4-yl (2-(4-(4-(3-(2,4-dihydroxy-5-isopropylphenyl)-5-(ethylcarbamoyl)-4H-1,2,4-triazol-4-yl)benzoyl)piperazin-1-yl)-2-oxoethyl) carbonate] | 21.2 | > 5000 nM | 21.2 |
| CCc1c2c(nc3ccc(OC(=O)N(C)CCCN4CCN(Cc5ccc(-n6c(O)nnc6-c6cc(C(C)C)c(O)cc6O)cc5)CC4)cc13)-c1cc3c(c(=O)n1C2)COC(=O)[C@]3(O)CC [SDC-TRAP-0065, (S)-4,11-diethyl-4-hydroxy-3,14-dioxo-3,4,12,14-tetrahydro-1H-pyrano[3′,4′:6,7]indolizino[1,2-b]quinolin-9-yl (3-(4-(4-(3-(2,4-dihydroxy-5-isopropylphenyl)-5-hydroxy-4H-1,2,4-triazol-4-yl)benzyl)piperazin-1-yl)propyl)(methyl)carbamate] |  | 661 nM |  |
| CCc1c2c(nc3ccc(O)cc13)-c1cc3c(c(=O)n1C2)COC(=O)C3(CC)OC(=O)CCC(=O)NCCn1ccc2cc(-n3c(O)nnc3-c3cc(C(C)C)c(O)cc3O)ccc21 (centres unmarked) [SDC-TRAP-0026] |  | 1780 nM |  |
| CCc1c2c(nc3ccc(OC(=O)N4CCC(CN5CCC(Cc6ccc(-n7c(O)nnc7-c7cc(C(C)C)c(O)cc7O)cc6)CC5)CC4)cc13)-c1cc3c(c(=O)n1C2)COC(=O)C3(O)CC (centres unmarked) [SDC-TRAP-0067, 4,11-diethyl-4-hydroxy-3,14-dioxo-3,4,12,14-tetrahydro-1H-pyrano[3′,4′:6,7]indolizino[1,2-b]quinolin-9-yl 4-((4-(4-(3-(2,4-dihydroxy-5-isopropylphenyl)-5-hydroxy-4H-1,2,4-triazol-4-yl)benzyl)piperidin-1-yl)methyl)piperidine-1-carboxylate] |  | 196 nM |  |
| CCc1c2c(nc3ccc(O)cc13)-c1cc3c(c(=O)n1C2)COC(=O)[C@@]3(CC)OC(=O)N(C)CCCN1CCN(Cc2ccc(-n3c(O)nnc3-c3cc(C(C)C)c(O)cc3O)cc2)CC1 [SDC-TRAP-0084, (S)-4,11-diethyl-9-hydroxy-3,14-dioxo-3,4,12,14-tetrahydro-1H-pyrano[3′,4′:6,7]indolizino[1,2-b]quinolin-4-yl (3-(4-(4-(3-(2,4-dihydroxy-5-isopropylphenyl)-5-hydroxy-4H-1,2,4-triazol-4-yl)benzyl)piperazin-1-yl)propyl)(methyl)carbamate] |  | 1130 nM |  |
| CCc1c2c(nc3ccc(OC(=O)N4CCC(CN5CCN(Cc6ccc(-n7c(O)nnc7-c7cc(C(C)C)c(O)cc7O)cc6)CC5)CC4)cc13)-c1cc3c(c(=O)n1C2)COC(=O)[C@]3(O)CC [SDC-TRAP-0088] |  | 221 nM |  |
| CCc1c2c(nc3ccc(O)cc13)-c1cc3c(c(=O)n1C2)COC(=O)[C@@]3(CC)OC(=O)N1CCC(N2Cc3ccc(-n4c(O)nnc4-c4cc(C(C)C)c(O)cc4O)cc3C2)CC1 [SDC-TRAP-0092, (S)-4,11-diethyl-9-hydroxy-3,14-dioxo-3,4,12,14-tetrahydro-1H-pyrano[3′,4′:6,7]indolizino[1,2-b]quinolin-4-yl 4-(5-(3-(2,4-dihydroxy-5-isopropylphenyl)-5-hydroxy-4H-1,2,4-triazol-4-yl)isoindolin-2-yl)piperidine-1-carboxylate] |  | 4710 nM |  |
| CCc1c2c(nc3ccc(O)cc13)-c1cc3c(c(=O)n1C2)COC(=O)[C@@]3(CC)OC(=O)N1CCC(COc2ccc(-n3c(O)nnc3-c3cc(C(C)C)c(O)cc3O)cc2)CC1 [SDC-TRAP-0014, (S)-4,11-diethyl-9-hydroxy-3,14-dioxo-3,4,12,14-tetrahydro-1H-pyrano[3,4:6,7]indolizino[1,2-b]quinolin-4-yl 4-((4-(3-(2,4-dihydroxy-5-isopropylphenyl)-5-hydroxy-4H-1,2,4-triazol-4-yl)phenoxy)methyl)piperidine-1-carboxylate] |  | > 5000 nM |  |
| CCc1c2c(nc3ccc(OC(=O)N4CCC(N5CCN(c6ccc(-n7c(O)nnc7-c7cc(C(C)C)c(O)cc7O)cc6)CC5)CC4)cc13)-c1cc3c(c(=O)n1C2)COC(=O)C3(O)CC (centres unmarked) [SDC-TRAP-0101, 4,11-diethyl-4-hydroxy-3,14-dioxo-3,4,12,14-tetrahydro-1H-pyrano[3′,4′:6,7]indolizino[1,2-b]quinolin-9-yl 4-(4-(4-(3-(2,4-dihydroxy-5-isopropylphenyl)-5-hydroxy-4H-1,2,4-triazol-4-yl)phenyl)piperazin-1-yl)piperidine-1-carboxylate] |  | 280 nM |  |
| CCc1c2c(nc3ccc(OC(=O)N4CCN(C(=O)c5cc6cc(-n7c(O)nnc7-c7cc(C(C)C)c(O)cc7O)ccc6n5C)CC4)cc13)-c1cc3c(c(=O)n1C2)COC(=O)C3(O)CC (centres unmarked) [SDC-TRAP-0072, 4,11-diethyl-4-hydroxy-3,14-dioxo-3,4,12,14-tetrahydro-1H-pyrano[3′,4′:6,7]indolizino[1,2-b]quinolin-9-yl 4-(5-(3-(2,4-dihydroxy-5-isopropylphenyl)-5-hydroxy-4H-1,2,4-triazol-4-yl)-1-methyl-1H-indole-2-carbonyl)piperazine-1-carboxylate] |  | > 5000 nM |  |
| CCc1c2c(nc3ccc(OC(=O)N4CCN(c5ccc(-n6c(O)nnc6-c6cc(C(C)C)c(O)cc6O)cn5)CC4)cc13)-c1cc3c(c(=O)n1C2)COC(=O)[C@]3(O)CC [SDC-TRAP-0090, (S)-4,11-diethyl-4-hydroxy-3,14-dioxo-3,4,12,14-tetrahydro-1H-pyrano[3′,4′:6,7]indolizino[1,2-b]quinolin-9-yl 4-(5-(3-(2,4-dihydroxy-5-isopropylphenyl)-5-hydroxy-4H-1,2,4-triazol-4-yl)pyridin-2-yl)piperazine-1-carboxylate] |  | 4600 nM |  |
| CCNC(=O)c1nnc(-c2cc(C(C)C)c(O)cc2O)n1-c1ccc(C(=O)N2CCN(c3ccc(OC(=O)Nc4cccc5c4CN(C4CCC(=O)NC4=O)C5=O)c(OC)c3)CC2)cc1 (centres unmarked) [SDC-TRAP-0173, 4-(4-(4-(3-(2,4-dihydroxy-5-isopropylphenyl)-5-(ethylcarbamoyl)-4H-1,2,4-triazol-4-yl)benzoyl)piperazin-1-yl)-2-methoxyphenyl (2-(2,6-dioxopiperidin-3-yl)-1-oxoisoindolin-4-yl)carbamate] |  | 323 nM |  |
